Measured values as given in article PMC6130489, “Caffeic acid methyl and ethyl esters exert potential antidiabetic effects on glucose and lipid metabolism in cultured murine insulin-sensitive cells through mechanisms implicating activation of AMPK” (Pharmaceutical Biology, 2017).

Columns and labels:
L6 GLUT4myc cells = assay: LDH cytotoxicity assay; assay type: cell-based; settings: 16-18 h, concentration inducing less than 10% cell death
Description: (§1) To determine nontoxic concentrations, cells were treated overnight (16–18 h) with 0.1% DMSO or different concentrations of either CAME or CAEE (12.5, 25, 50 and 100 μM). Cell culture media were collected separately and kept on ice. The cells were rinsed with PBS then lysed with 1% Triton X-100 in culture media for 10 min and the lysate were centrifuged at 4 °C for 10 min at 250g. Lactate dehydrogenase (LDH) activity in medium and in lysates was assayed with the LDH-Cytotoxicity Assay Kit II (BioVision, Mountain View, CA) according to the manufacturer's protocol (Smith et al. [2011]). LDH activity was expressed as the ratio of released LDH (medium) to total (medium + lysate) LDH activity.
(§2) Similar to our previous study in C2C12 cells, the maximum nontoxic concentrations of CAME and CAEE were determined using a LDH assay kit. Concentrations that induced less than 10% cell death were chosen as the maximum nontoxic concentrations (Table 1).

H4IIE cells = assay: LDH cytotoxicity assay; assay type: cell-based; settings: 16-18 h, concentration inducing less than 10% cell death
Description: as §1, §2

3T3-L1 cells = assay: LDH cytotoxicity assay; assay type: cell-based; settings: 16-18 h, concentration inducing less than 10% cell death
Description: as §1, §2

C2C12 cells = tested on: C2C12 cells; design: method as in Eid et al. [2010]; settings: cultured C2C12 cells; ref Eid et al. [2010]; cited from earlier work
AMPK [1] = assay: Western immunoblot phospho-AMPK in L6 myotubes; assay type: cell-based, rat; settings: 50 μM, 18 h, phospho-AMPK/β-actin
Description: L6 cells myotubes, H4IIE cells and 3T3-L1 adipocytes were treated with either CAME, CAEE (50 μM each) or vehicle (DMSO) for 18 h. Insulin (100 nM) or aminoimidazole carboxamide ribonucleotide (AICAR; 1 mM) were added to some vehicle-treated wells 30 min prior to the end of the treatment and served as the positives controls. Protein content was assayed by the bicinchoninic acid method (Thermo Scientific Pierce Protein Research, Rockford, IL) standardized to bovine serum albumin. Western immunoblotting was performed as described elsewhere (Eid et al. [2010]). Membranes were incubated overnight with phospho-AMPK, phospho-Akt, GLUT4, GLUT1 and β-actin antibodies (1:1000 dilution, Cell Signalling Technology, Danvers, MA), or with PPAR-γ, SREBP-1 (1:200, Santa Cruze Biotechnology, Santa Cruz, CA), followed by incubation with HRP-coupled secondary antibody (1:10,000) for 1 h. Immunoreactive bands were visualized by enhanced chemiluminescence and quantified by the Scion Image program (Scion Corporation, Frederick, MD). Experiments were repeated on 3 different passages of cells, each passage containing all conditions in parallel.
Figure 1. (A) CAME and CAEE increase ^3H-deoxyglucose uptake in L6 GLUT4myc myotubes. Cells were treated with 50 μM of either CAME, CAEE, or with vehicle (0.1% DMSO) for 18 h. 100 nM insulin served as the positive control and was applied for the last 15 min of the treatment in vehicle-treated cells. Glucose uptake was performed as described in Materials and Methods section. […] Cells were treated as previously described, cell surface GLUT4myc was detected by an enzyme-linked colorimetric assay. […] Results represent the means ± SEM of three independent experiments, and 3-4 cells were analyzed for each condition per experiment. *Indicates a significant (p ≤ 0.05) difference, **(p < 0.01) from the vehicle control group as assessed by ANOVA. […] Data are expressed as (D) phospho-AMPK/β-actin, (E) GLUT4/β-actin and (F) GLUT1/β-actin and are given as mean ± SEM from 3 experiments. *p < 0.05 indicates a significant difference, **(p < 0.01) from the vehicle control group.

AMPK [2] = assay: Western immunoblot phospho-AMPK in H4IIE cells; assay type: cell-based, rat; settings: 50 μM, 18 h, AICAR 1 mM 30 min as positive control
Description: L6 cells myotubes, H4IIE cells and 3T3-L1 adipocytes were treated with either CAME, CAEE (50 μM each) or vehicle (DMSO) for 18 h. Insulin (100 nM) or aminoimidazole carboxamide ribonucleotide (AICAR; 1 mM) were added to some vehicle-treated wells 30 min prior to the end of the treatment and served as the positives controls. Protein content was assayed by the bicinchoninic acid method (Thermo Scientific Pierce Protein Research, Rockford, IL) standardized to bovine serum albumin. Western immunoblotting was performed as described elsewhere (Eid et al. [2010]). […] Immunoreactive bands were visualized by enhanced chemiluminescence and quantified by the Scion Image program (Scion Corporation, Frederick, MD). […]
Figure 2. […] (A) H4IIE hepatocytes were treated for 16 h with several concentrations (12.5, 25, 50 and100 μM) of either CAME or CAEE and G6Pase activity was determined colorimetrically using a commercial glucose assay kit as described under Materials and Methods. […] (D) Data are expressed as phospho-AMPK/pan-AMPK and are given as mean ± SEM from 3 experiments. *p < 0.05 indicates a significant difference, **(p < 0.01), ***(p < 0.001) from the vehicle control group.

SMILES | Maximum non-toxic concentration (L6 GLUT4myc cells) [µM] | Maximum non-toxic concentration (H4IIE cells) [µM] | Maximum non-toxic concentration (3T3-L1 cells) [µM] | toxicity (C2C12 cells) | AMPK phosphorylation, fold increase over DMSO (AMPK [1]) [fold] | AMPK phosphorylation (AMPK [2])
COC(=O)/C=C/c1ccc(O)c(O)c1 [CAME, CA methyl ester] | 50 | 100 | 100 | no or little toxicity | 13 | increase in AMPK phosphorylation to the same extent as the positive control AICAR
CCOC(=O)/C=C/c1ccc(O)c(O)c1 [CAEE, caffeic acid ethyl ester] | 50 | 50 | 100 | no or little toxicity | 11 | increase in AMPK phosphorylation to the same extent as the positive control AICAR
